Results published in patent US20120121691A1, “Method for Increasing the Production of a Specific ACYL-Chain Dihydroceramide(s) for Improving the Effectiveness of Cancer Treatments” (priority 2010, published 2012).
Where two headings read alike, the source gives them in different places.

Assays:
[1] = test system: MOLT-4; format: cell-based, human
Experimental: (§1) Statistical analyses. […] Propagated standard deviations were calculated using standard methods. Correlation analyses were performed using Sigmaplot 11 software.

[2] = test system: COG-LL-332; format: cell-based, human
Experimental: as §1

[3] = test system: COG-LL-317; format: cell-based, human
Experimental: as §1

[4] = test system: CCRF-CEM
Experimental: Statistical analyses. Descriptive statistics and significance testing were performed using Microsoft Excel. The Excel function “t.test” was used for Student's T-testing (two-tailed, type-2). Propagated standard deviations were calculated using standard methods. Correlation analyses were performed using Sigmaplot 11 software. […]
Due to the confounding effect of in vitro fatty acid conversion, correlation analyses were used to identify significant relationships between absolute levels of specific sphingolipids and cytotoxicity. […]

Compound | Pearson Coef. (r), sphingolipid level vs cytotoxicity [1] | Spearman Coef. (ρ), sphingolipid level vs cytotoxicity [1] | Pearson Coefficient (r), sphingolipid level vs cytotoxicity [2] | Spearman Coefficient (ρ), sphingolipid level vs cytotoxicity [2] | Pearson Coef. (r), sphingolipid level vs cytotoxicity [3] | Spearman Coef. (ρ), sphingolipid level vs cytotoxicity [3] | Pearson Coef. (r), sphingolipid level vs cytotoxicity [4] | Spearman Coef. (ρ), sphingolipid level vs cytotoxicity [4] | Pearson Coef. (r), sphingolipid level vs cytotoxicity ([4]; CCRF-CEM) | Spearman Coef. (ρ), sphingolipid level vs cytotoxicity ([4]; CCRF-CEM)
CCCCCCCCC=CCCCCCCCC(=O)NC(CO)C(O)C=CCCCCCCCCCCCCC (centres unmarked) [C18:1-Cer] | −0.52 | −0.59 | −0.45 | −0.30 | −0.50 | −0.59 | 0.11 | 0.10 |  | 
CCCCCCCCCCCCCCCCCCCCCCCC(=O)N[C@@H](CO)[C@H](O)CCCCCCCCCCCCCCC [C24:0-DHCer] | 0.79 | 0.88 | 0.74 | 0.83 | 0.89 | 0.91 | 0.58 | 0.84 |  | 
CCCCCCCCCCCCCC=CC(O)C(CO)NC(=O)CCCCCCCCCCCCCCCCCCCCCCC (centres unmarked) [C24:0-Cer] | 0.33 | 0 | 0.39 | 0.38 | 0.48 | 0.25 | 0.40 | 0.41 |  | 
CCCCCCCCCCCCCC=CC(O)C(CO)NC(=O)CCCCCCCCCCCCCCC (centres unmarked) [C16:0-Cer] | −0.62 | −0.76 | −0.09 | −0.05 | −0.48 | −0.50 | 0.25 | 0.03 |  | 
CCCCCCCCCCCCC/C=C/[C@@H](O)[C@H](CO)NC(=O)CCCCCCCCCCCCC [C14:0-Cer] | −0.53 | −0.48 | −0.32 | −0.28 | −0.54 | −0.43 | 0.03 | 0.01 |  | 
CCCCCCCCCCCCCC=CC(O)C(CO)NC(=O)CCCCCCCCCCCCCCCCCCC (centres unmarked) [C20:0-Cer] | −0.46 | −0.52 | −0.79 | −0.91 | −0.63 | −0.81 | 0.01 | 0.07 |  | 
CCCCCCCC/C=C\CCCCCCCCCCCCCC(=O)N[C@@H](CO)[C@H](O)CCCCCCCCCCCCCCC [C24:1-DHCer] | −0.04 | 0.12 | 0.14 | 0.45 | −0.29 | −0.21 | −0.17 | −0.07 |  | 
CCCCCCCCCCCCCCC[C@@H](O)[C@H](CO)NC(=O)CCCCCCCCCCCCC [C14:0-DHCer] | 0.13 | 0.35 | 0.06 | 0.18 | 0.16 | 0.10 | 0.12 | 0.20 |  | 
CCCCCCCCCCCCC/C=C/[C@@H](O)[C@@H](N)COP(=O)(O)O [Sphingosine-1-P] |  |  |  |  |  |  |  |  | −0.07 | 0.27
CCCCCCCCCCCCCC=CC(O)C(CO)NC(=O)CCCCCCCCCCCCCCCCC (centres unmarked) [C18:0-Cer] | −0.33 | −0.45 | −0.54 | −0.38 | −0.45 | −0.60 | 0.14 | 0.07 |  | 
